Series [1] has as its system β amyloid protein (Aβ) secreted by E35 cells (human glioma H4 cells transfected with APP751 gene). Description: Inhibition of production or secretion of β-amyloid protein (Aβ) in E35 cells, sandwich ELISA of the supernatant. The note with it: 24 hours with test compound, compared to DMSO control cells, read-out: Activity (IC50, concentration at which 50% inhibition of Aβ production was observed). The series is classed as cell-based. The protocol: The inhibitory activity against formation of β amyloid protein of the compounds obtained in Examples was tested in the method described bellow.
E35 cells were established by transfecting APP751 gene which is a wild type human β-amyloid protein precursor into human glioma cells (H4 cells).
E35 cells were seeded in 96-well plates and cultured in an incubator of 37° C. by using a Dulbecco's Modified Eagle's Medium containing 10% inactivated fetal bovine serum (10% FBS-DMEM). Twenty-four hours after seeding, a test compound dissolved in DMSO so as to give its concentration to be 2000 times as much as that of the final concentration was added to the medium in an amount of 1/2000 capacity of the culture medium. The cells were cultured for additional twenty-four hours, and then the supernatant was collected. The amount of β amyloid protein (Aβ) secreted in the supernatant was measured by the sandwich enzyme-linked immunosorbent assay (ELISA). Described specifically, a monoclonal antibody 25-1, which recognized Aβ25-35, was immobilized onto a 96-well ELISA plate, followed by the incubation at 4° C. for 16 to 20 hours. After washing with a phosphate buffer (pH 7.4) (PBS), a biotinylated monoclonal antibody MA32-40, which recognized Aβ1-8, was added, and the plate was kept at 4° C. for 2 hours. After the supernatant was removed and the well was washed sufficiently with PBS, alkaline phosphatase-conjugated streptavidin was added to the plate. Absorbance was measured while adding BlouPhos (manufactured by KPL) as a substrate. An amount of Aβ contained in the supernatant was calculated using a calibration curve separately created using Aβ of a known concentration. IC50 of the test compound was presented as the concentration at which 50% inhibition of Aβ production was observed compared to the amount of Aβ of the control cells to which only DMSO was added.
When there is at least 10-times difference between the IC50 and the concentration at which cytotoxicity appears, then the compound is judged as a compound having an inhibitory activity against production or secretion of β amyloid protein.
On the technique in general: In an ELISA, binding on a coated surface is turned into a signal by an enzyme label.

The structures appear in SMILES notation. Where only a bound is given, the exact number is not on record here.

In turn, `O=S(=O)(c1ccc(Cl)cc1)C(c1cc(F)ccc1F)C1CCCCC1` (stereo not drawn) [Example 1, 2-[[(4-Chlorophenyl)sulfonyl](cyclohexyl)methyl]-1,4-difluorobenzene] showed a melting point of 107 to 109 °C. In series [1], the IC50 was in the range of 50 to 500 nM. For the compound `O=S(=O)(c1ccc(Cl)cc1)C(c1cc(F)ccc1F)c1cc(Cl)ncc1Cl` (stereo not drawn) [Example 57, 2,5-Dichloro-4-[(4-chlorophenylsulfonyl)-(2,5-difluorophenyl)methyl]pyridine 0.5 hydrate], the IC50 in series [1] fell in the range of 5 to 50 nM. `O=C(O)CCc1ccc(C(c2cc(F)ccc2F)S(=O)(=O)c2ccc(Cl)cc2)nc1` (stereo not drawn) [Example 46, 3-[6-[(4-Chlorophenylsulfonyl)-(2,5-difluorophenyl)methyl]pyridin-3-yl]propionic acid] yielded a melting point of 158 to 160 °C. Moreover, the IC50 in series [1] was in the range of 50 to 500 nM. For the compound `NCC1CN(c2cc(C(c3cc(F)ccc3F)S(=O)(=O)c3ccc(Cl)cc3)c(Cl)cn2)CCO1` (stereo not drawn) [Example 114, 2-Aminomethyl-4-[5-chloro-4-[(4-chlorophenylsulfonyl)-(2,5-difluorophenyl)methyl]pyridin-2-yl]morpholine], in series [1], the IC50 was 5 to 50 nM. `O=S(=O)(c1ccc(Cl)cc1)C(c1ccc(CO)cn1)c1cc(F)ccc1F` (stereo not drawn) [Example 43, 2-[(4-Chlorophenylsulfonyl)-(2,5-difluorophenyl)methyl]-5-(hydroxymethyl)pyridine] came in with a melting point of 151 to 152 °C. Further, the IC50 in series [1] lay in the range of 50 to 500 nM. `CS(=O)(=O)Nc1cc(C(c2cc(F)ccc2F)S(=O)(=O)c2ccc(F)c(F)c2)c(Cl)cn1` (stereo not drawn) [Example 249, N-[5-Chloro-4-[(2,5-difluorophenyl)(3,4-difluorophenylsulfonyl)methyl]pyridin-2-yl]methanesulfonamide] yielded a melting point of 118 to 120 °C. The IC50 in series [1] is under 5 nM.

`Nc1cc(C(c2cc(F)ccc2F)S(=O)(=O)c2ccc(Cl)s2)c(Cl)cn1` (stereo not drawn) [Example 243, [5-Chloro-4-[(5-chlorothiophen-2-ylsulfonyl)(2,5-difluorophenyl)methyl]pyridin-2-yl]amine]: the melting point fell in the range of 170 to 171 °C. In series [1], the IC50 lay within 5 to 50 nM. The like results for `O=S(=O)(c1ccc(Cl)cc1)C(c1ccc(C2OCCO2)cn1)c1cc(F)ccc1F` (stereo not drawn) [Example 42, 2-[(4-Chlorophenylsulfonyl)-(2,5-difluorophenyl)methyl]-5-(1,3-dioxolan-2-yl)pyridine] were, in that order, 167 to 168 °C and 50 to 500 nM.

Take `CS(=O)(=O)Nc1cc(C(Sc2ccc(Cl)cc2)c2cc(F)ccc2F)c(Cl)cn1` (stereo not drawn) [220 (B), N-[5-chloro-4-[(4-chlorophenylthio)(2,5-difluorophenyl)methyl]pyridin-2-yl]methanesulfonamide]: in series [1], the IC50 fell in the range of 50 to 500 nM. For `CS(=O)(=O)CCNc1cc(C(c2cc(F)ccc2F)S(=O)(=O)c2ccc(Cl)cc2)c(Cl)cn1` (stereo not drawn) [Example 176, 5-Chloro-4-[(4-chlorophenylsulfonyl)-(2,5-difluorophenyl)methyl]-2-[(2-methylsulfonylethyl)amino]pyridine], in series [1], the IC50 was under 5 nM. As to `O=C(O)CCc1cc(C(c2cc(F)ccc2F)S(=O)(=O)c2ccc(Cl)cc2)c(Cl)cn1` (stereo not drawn) [Example 261, 3-[5-Chloro-4-[(4-chlorophenylsulfonyl)(2,5-difluorophenyl)methyl]pyridin-2-yl]propionic acid], the melting point was 194 to 196 °C. Besides, in series [1], the IC50 was in the range of 5 to 50 nM. In turn, `Nc1cc(C(c2cc(F)ccc2F)S(=O)(=O)c2ccc(Cl)c(F)c2)c(Cl)cn1` (stereo not drawn) [Example 251, [5-Chloro-4-[(4-chloro-3-fluorophenylsulfonyl)(2,5-difluorophenyl)methyl]pyridin-2-yl]amine] displayed a melting point of 159 to 160 °C. Further, the IC50 in series [1] was under 5 nM. In the case of `[O-][S+](c1ccc(Cl)cc1)C(c1cc(F)ccc1F)c1ccncc1Cl` (stereo not drawn) [Example 56, 3-Chloro-4-[(4-chlorophenylsulfinyl)-(2,5-difluorophenyl)methyl]pyridine], the IC50 in series [1] fell in the range of 5 to 50 nM. Consider `CS(=O)(=O)NCc1ccc(C(c2cc(F)ccc2F)S(=O)(=O)c2ccc(Cl)cc2)nc1` (stereo not drawn) [Example 82, N-[[6-(4-Chlorophenylsulfonyl)(2,5-difluorophenyl)methylpyridin-3-yl]methyl]methanesulfonamide], for which the IC50 in series [1] lay within 50 to 500 nM. As to `O=S(=O)(c1ccc(Cl)cc1)C(c1cc(F)ccc1F)c1cc(NCC[N+]2([O-])CCOCC2)ncc1Cl` (stereo not drawn) [Example 61, 4-[2-[5-Chloro-4-[(4-chlorophenylsulfonyl)-(2,5-difluorophenyl)methyl]pyridin-2-yl]aminoethyl]morpholine-N-oxide], the IC50 in series [1] is under 5 nM.

For the compound `COC(=O)OCc1ccc(C(c2cc(F)ccc2F)S(=O)(=O)c2ccc(Cl)cc2)nc1` (stereo not drawn) [Example 84, [6-(4-Chlorophenylsulfonyl)(2,5-difluorophenyl)methylpyridin-3-yl]methyl methylcarbonate], in series [1], the IC50 was 50 to 500 nM. `CS(=O)(=O)Nc1cc(C(c2cc(F)ccc2F)[S+]([O-])c2ccc(Cl)cc2)c(Cl)cn1` (stereo not drawn) [Example 221, N-[5-Chloro-4-[(4-chlorophenylsulfinyl)(2,5-difluorophenyl)methyl]pyridin-2-yl]methanesulfonamide]: the IC50 in series [1] is under 5 nM. `CNCCN(C)c1cc(C(c2cc(F)ccc2F)S(=O)(=O)c2ccc(Cl)cc2)c(Cl)cn1` (stereo not drawn) [Example 109, 5-Chloro-4-[(4-chlorophenylsulfonyl)-(2,5-difluorophenyl)methyl]-2-[N-methyl-N-[2-(methylamino)ethyl]amino]pyridine]: in series [1], the IC50 was 5 to 50 nM. The same measure, in the same setting: the figure for `NNc1cc(C(c2cc(F)ccc2F)S(=O)(=O)c2ccc(Cl)cc2)c(Cl)cn1` (stereo not drawn) [Example 222, [5-Chloro-4-[(4-chlorophenylsulfonyl)(2,5-difluorophenyl)methyl]pyridin-2-yl]hydrazine] is 5 to 50 nM; for `CN(C)CCS(=O)(=O)Nc1cc(C(c2cc(F)ccc2F)S(=O)(=O)c2ccc(Cl)cc2)c(Cl)cn1` (stereo not drawn) [Example 279, N-[5-Chloro-4-[(4-chlorophenylsulfonyl)(2,5-difluorophenyl)methyl]pyridin-2-yl]-2-(dimethylamino)ethanesulfonamide] it is under 5 nM; for `OC1CCN(c2cc(C(Sc3ccc(Cl)cc3)c3cc(F)ccc3F)c(Cl)cn2)CC1` (stereo not drawn) [Example 115, 5-Chloro-4-[(4-chlorophenylthio)-(2,5-difluorophenyl)methyl]-2-(4′-hydroxypiperidin-1′-yl)pyridine] it is under 5 nM. Still for that read-out and setting: the figure for `O=S(=O)(c1ccc(Cl)cc1)C(c1cc(F)ccc1F)c1cc(N2CCC[C@H]2CO)ncc1Cl` (stereo partly drawn) [Example 111] is 5 to 50 nM; for `COc1c(C(c2cc(F)ccc2F)S(=O)(=O)c2ccc(Cl)cc2)c(=O)oc2ccccc12` (stereo not drawn) [23 (Compound A), 3-[[(4-Chlorophenyl)sulfonyl]-(2,5-difluorophenyl)methyl]-4-methoxychromen-2-one] it is 5 to 50 nM. The same measure, in the same setting: the figure for `O=S(=O)(c1ccc(Cl)cc1)C(c1cc(F)ccc1F)c1cc(NCCN2CCOCC2)ncc1Cl` (stereo not drawn) [Example 106, 4-[2-[5-Chloro-4-[(4-chlorophenylsulfonyl)-(2,5-difluorophenyl)methyl]pyridin-2-yl]aminoethyl]morpholine] is under 5 nM. In turn, `O=S(=O)(c1ccc(F)cc1)C(c1cc(F)ccc1F)c1cc(NCCO)ncc1Cl` (stereo not drawn) [Example 179, 2-[[5-Chloro-4-[(2,5-difluorophenyl)-(4-fluorophenylsulfonyl)methyl]pyridin-2-yl]amino]ethanol] displayed a melting point of 157 to 158 °C.

For orientation: melting point means the temperature of the solid-liquid transition.

(Values after US7932271B2, “Heterocyclic methyl sulfone derivative” (Daiichi Pharmaceutical Co., Ltd., priority 2003, dated 2011).)
